According to ChEMBL document CHEMBL1212763, “Pharmacokinetics and safety of S/GSK1349572, a next-generation HIV integrase inhibitor, in healthy volunteers” (Antimicrob Agents Chemother, 2010):

Tests used:
Homo sapiens [1] = experiment: Toxicity in healthy human assessed as incidence of drug related incidence of pharyngolaryngeal pain at 10 mg, qd for 10 days administered as suspension measured after last dose; type: organism-based; conditions: in vivo, 240 h
[2] = Tmax in healthy human at 10 mg, qd for 10 days administered as suspension measured after last dose; type: ADME, organism-based; conditions: in vivo
[3] = Apparent oral clearance in healthy human at 10 mg administered as single dose suspension; type: ADME, organism-based; conditions: in vivo
[4] = Apparent oral clearance in healthy human at 100 mg administered as single dose suspension; type: ADME, organism-based; conditions: in vivo
Homo sapiens [5] = experiment: Toxicity in healthy human assessed as incidence of adverse events at 10 to 50 mg, qd for 10 days administered as suspension measured after last dose; type: organism-based; conditions: in vivo, 240 h
[6] = AUC (0-infinity) in healthy human at 10 mg administered as single dose suspension; type: ADME, organism-based; design: dose 10 mg, time infinity; conditions: plasma
Homo sapiens [7] = experiment: Toxicity in healthy human assessed as incidence of drug related incidence of somnolence at 100 mg administered as single dose suspension; type: organism-based; conditions: in vivo
[8] = Tmax in healthy human at 50 mg, qd for 10 days administered as suspension measured after last dose; type: ADME, organism-based; conditions: in vivo
[9] = AUC (0-infinity) in healthy human at 2 mg administered as single dose suspension; type: ADME, organism-based; design: dose 2 mg, time infinity; conditions: plasma
[10] = AUC (0-tau) in healthy human at 10 mg, qd for 10 days administered as suspension measured after last dose; type: ADME, organism-based; conditions: plasma
[11] = Cmax in healthy human at 5 mg administered as single dose suspension; type: ADME, organism-based; design: dose 5 mg; conditions: in vivo
Homo sapiens [12] = experiment: Toxicity in healthy human assessed as incidence of drug related incidence of headache at 50 mg, qd for 10 days administered as suspension measured after last dose; type: organism-based; conditions: in vivo, 240 h
[13] = AUC (0-t) in healthy human at 25 mg administered as single dose suspension; type: ADME, organism-based; conditions: plasma
Homo sapiens [14] = experiment: Toxicity in healthy human assessed as incidence of drug related incidence of pharyngolaryngeal pain at 50 mg, qd for 10 days administered as suspension measured after last dose; type: organism-based; conditions: in vivo, 240 h
Homo sapiens [15] = experiment: Toxicity in healthy human assessed as incidence of drug related incidence of pharyngolaryngeal pain at 25 mg, qd for 10 days administered as suspension measured after last dose; type: organism-based; conditions: in vivo, 240 h
Homo sapiens [16] = experiment: Toxicity in healthy human assessed as incidence of drug related incidence of head ache at 10 mg administered as single dose suspension; type: organism-based; conditions: in vivo
Homo sapiens [17] = experiment: Toxicity in healthy human assessed as incidence of drug related incidence of pruritis at 50 mg, qd for 10 days administered as suspension measured after last dose; type: organism-based; conditions: in vivo, 240 h
Homo sapiens [18] = experiment: Toxicity in healthy human assessed as incidence of adverse events at 2 to 100 mg administered as single dose suspension; type: organism-based; conditions: in vivo
[19] = Drug level in healthy human at 10 mg, qd for 10 days administered as suspension measured after last dose; type: ADME, organism-based; conditions: in vivo, read-out: Drug uptake
[20] = Cmax in healthy human at 50 mg, qd for 10 days administered as suspension measured after last dose; type: ADME, organism-based; design: dose 50 mg; conditions: in vivo
Homo sapiens [21] = experiment: Toxicity in healthy human assessed as incidence of drug related incidence of headache at 25 mg, qd for 10 days administered as suspension measured after last dose coadministered with 3 mg CYP3A4 probe midazolam; type: organism-based; conditions: in vivo, 240 h
[22] = AUC (0-infinity) in healthy human at 100 mg administered as single dose suspension; type: ADME, organism-based; design: dose 100 mg, time infinity; conditions: plasma
[23] = Cmax in healthy human at 10 mg administered as single dose suspension; type: ADME, organism-based; design: dose 10 mg; conditions: in vivo
[24] = Cmax in healthy human at 10 mg, qd for 10 days administered as suspension measured after last dose; type: ADME, organism-based; design: dose 10 mg; conditions: in vivo
[25] = AUC (0-tau) in healthy human at 50 mg, qd for 10 days administered as suspension measured after last dose; type: ADME, organism-based; conditions: plasma
Homo sapiens [26] = experiment: Toxicity in healthy human assessed as incidence of drug related incidence of headache at 10 mg, qd for 10 days administered as suspension measured after last dose; type: organism-based; conditions: in vivo, 240 h
[27] = Tmax in healthy human at 100 mg administered as single dose suspension; type: ADME, organism-based; conditions: in vivo
[28] = Cmax in healthy human at 2 mg administered as single dose suspension; type: ADME, organism-based; design: dose 2 mg; conditions: in vivo
[29] = Drug level at 24 hrs in healthy human at 5 mg administered as single dose suspension; type: ADME, organism-based; conditions: in vivo, read-out: Drug uptake
[30] = AUC (0-t) in healthy human at 10 mg administered as single dose suspension; type: ADME, organism-based; conditions: plasma
[31] = AUC (0-infinity) in healthy human at 25 mg administered as single dose suspension; type: ADME, organism-based; design: dose 25 mg, time infinity; conditions: plasma
[32] = Tmax in healthy human at 50 mg administered as single dose suspension; type: ADME, organism-based; conditions: in vivo
Homo sapiens [33] = experiment: Toxicity in healthy human assessed as incidence of drug related incidence of somnolence at 10 mg administered as single dose suspension; type: organism-based; conditions: in vivo
[34] = Tmax in healthy human at 25 mg, qd for 10 days administered as suspension measured after last dose; type: ADME, organism-based; conditions: in vivo
Homo sapiens [35] = experiment: Toxicity in healthy human assessed as incidence of drug related incidence of pruritis at 25 mg, qd for 10 days administered as suspension measured after last dose coadministered with 3 mg CYP3A4 probe midazolam; type: organism-based; conditions: in vivo, 240 h
[36] = Cmax in healthy human at 50 mg administered as single dose suspension; type: ADME, organism-based; design: dose 50 mg; conditions: in vivo
[37] = Cmax in healthy human at 25 mg administered as single dose suspension; type: ADME, organism-based; design: dose 25 mg; conditions: in vivo
[38] = Cmax in healthy human at 100 mg administered as single dose suspension; type: ADME, organism-based; design: dose 100 mg; conditions: in vivo

C[C@@H]1CCO[C@H]2Cn3cc(C(=O)NCc4ccc(F)cc4F)c(=O)c([O-])c3C(=O)N12.[Na+] [DOLUTEGRAVIR SODIUM]
Activity (Homo sapiens [1]): 0% | Tmax [2]: 30 min | CL/F [3]: 11.5 mL/min | CL/F [4]: 12.3 mL/min | Activity (Homo sapiens [5]): Non-toxic | AUC(0-inf) [6]: 14600 ng·h/mL | Activity (Homo sapiens [7]): 0% | Tmax [8]: 1 h | AUC(0-inf) [9]: 2780 ng·h/mL | AUC tau at 240 h [10]: 16700 ng·h/mL | Cmax [11]: 661 ng/mL | Activity (Homo sapiens [12]): 22% | AUC(0-t) [13]: 34300 ng·h/mL | Activity (Homo sapiens [14]): 11% | Activity (Homo sapiens [15]): 0% | Activity (Homo sapiens [16]): 13% | Activity (Homo sapiens [17]): 22% | Activity (Homo sapiens [18]): Non-toxic | concentration at 240 h [19]: 350 ng/mL | Cmax [20]: 6160 ng/mL | Activity (Homo sapiens [21]): 0% | AUC(0-inf) [22]: 136 µg·h/mL | Cmax [23]: 1230 ng/mL | Cmax [24]: 1470 ng/mL | AUC tau at 240 h [25]: 76800 ng·h/mL | Activity (Homo sapiens [26]): 0% | Tmax [27]: 1 h | Cmax [28]: 231 ng/mL | concentration at 24 h [29]: 126 ng/mL | AUC(0-t) [30]: 14300 ng·h/mL | AUC(0-inf) [31]: 35100 ng·h/mL | Tmax [32]: 1.25 h | Activity (Homo sapiens [33]): 0% | Tmax [34]: 1 h | Activity (Homo sapiens [35]): 0% | Cmax [36]: 4560 ng/mL | Cmax [37]: 2760 ng/mL | Cmax [38]: 8140 ng/mL
